Experimental data from patent US9499550B2 (BRISTOL-MYERS SQUIBB COMPANY, priority 2012, dated 2016).

Legend:
[1] = tested on: HCV genotype 1b (Con1) replicon in HUH-7 cells; test: HCV replicon luciferase reporter assay, genotype 1b; type: cell-based; conditions: Hepatitis C virus, Huh-7, 72 h, HCV genotype 1b replicon luciferase assay, 3 days incubation, range class, read-out: LE_1b (EC50, range)
How it was run: (§1)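 Replicon inhibition for both genotypes was measured as Renilla luciferase signal (EnduRen, 7.5 μM final, 2 h) after 3-day, 37° C exposure of replicon-bearing HUH-7 cells in 4% FCS DMEM, 0.5% DMSO. The 1b construct carries S1179I; the 1a H77 construct carries P1496L and S2204I. Twenty-point, 3-fold dilutions were fitted four-parametrically for EC50, and CC50 was taken from multiplexed Cell Titer-Blue.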

[2] = tested on: HCV genotype 1a (H77 strain) replicon in HUH-7 cells; test: HCV replicon luciferase reporter assay, genotype 1a; type: cell-based; conditions: Hepatitis C virus, Huh-7, 72 h, HCV genotype 1a replicon luciferase assay, 3 days incubation, range class, read-out: LE_1a (EC50, range)
How it was run: as §1

`COc1ccc2c(O[C@@H]3C[C@H]4C(=O)N[C@]5(C(=O)NS(=O)(=O)C6(CF)CC6)C[C@H]5/C=C\CC[C@@H](C)C[C@@H](C)[C@H](NC(=O)OC(C)(C)C(C)(F)F)C(=O)N4C3)nccc2c1` [Compound 1143, 3,3-difluoro-2-methylbutan-2-yl((2R,6S,7R,9R,13aS,14aR,16aS,Z)-14a-(((1-(fluoromethyl)cyclopropyl)sulfonyl)carbamoyl)-2-((6-methoxyisoquinolin-1-yl)oxy)-7,9-dimethyl-5,16-dioxo-1,2,3,5,6,7,8,9,10,11,13a,14,14a,15,16,16a-hexadecahydrocyclopropa[e]pyrrolo[1,2-a][1,4]diazacyclopentadecin-6-yl)carbamate] was tested. Which EC50 [1] did it give?
The EC50 was less than 5.46 nM.

And the EC50 [2]?
The EC50 was 4.82 to 103 nM.

Which results are given for `COCCOc1cnc(O[C@@H]2C[C@H]3C(=O)N[C@]4(C(=O)NS(=O)(=O)C5(C)CC5)C[C@H]4/C=C\CC[C@H](C)C[C@@H](C)[C@H](NC(=O)OC(C)(C)C(F)(F)F)C(=O)N3C2)c2ccc(OC)cc12` [Compound 1144, 1,1,1-trifluoro-2-methylpropan-2-yl((2R,6S,7R,9S,13aS,14aR,16aS,Z)-2-((6-methoxy-4-(2-methoxyethoxyl)isoquinolin-1-yl)oxy)-7,9-dimethyl-14a-(((1-methylcyclopropyl)sulfonyl)carbamoyl)-5,16-dioxo-1,2,3,5,6,7,8,9,10,11,13a,14,14a,15,16,16a-hexadecahydrocyclopropa[e]pyrrolo[1,2-a][1,4]diazacyclopentadecin-6-yl)carbamate]?
EC50 [1]: < 5.46 nM; EC50 [2]: < 5.46 nM

What does the source list for `COCCOc1cnc(O[C@@H]2C[C@H]3C(=O)N[C@]4(C(=O)NS(=O)(=O)C5(C)CC5)C[C@H]4/C=C\CC[C@@H](C)C[C@@H](C)[C@H](NC(=O)OC(C)(C)C(F)(F)F)C(=O)N3C2)c2ccc(OC)cc12` [Compound 1145, 1,1,1-trifluoro-2-methylpropan-2-yl((2R,6S,7R,9R,13aS,14aR,16aS,Z)-2-((6-methoxy-4-(2-methoxyethoxyl)isoquinolin-1-yl)oxy)-7,9-dimethyl-14a-(((1-methylcyclopropyl)sulfonyl)carbamoyl)-5,16-dioxo-1,2,3,5,6,7,8,9,10,11,13a,14,14a,15,16,16a-hexadecahydrocyclopropa[e]pyrrolo[1,2-a][1,4]diazacyclopentadecin-6-yl)carbamate]?
EC50 [1]: < 5.46 nM; EC50 [2]: < 5.46 nM

Which results are given for `COCCOc1cnc(O[C@@H]2C[C@H]3C(=O)N[C@]4(C(=O)NS(=O)(=O)C5CC5)C[C@H]4/C=C\CC[C@H](C)C[C@@H](C)[C@H](NC(=O)OC(C)(C)C(F)(F)F)C(=O)N3C2)c2ccc(OC)cc12` [Compound 1146, 1,1,1-trifluoro-2-methylpropan-2-yl((2R,6S,7R,9S,13aS,14aR,16aS,Z)-14a-((cyclopropylsulfonyl)carbamoyl)-2-((6-methoxy-4-(2-methoxyethoxyl)isoquinolin-1-yl)oxy)-7,9-dimethyl-5,16-dioxo-1,2,3,5,6,7,8,9,10,11,13a,14,14a,15,16,16a-hexadecahydrocyclopropa[e]pyrrolo[1,2-a][1,4]diazacyclopentadecin-6-yl)carbamate]?
EC50 [1]: < 5.46 nM; EC50 [2]: < 5.46 nM

What does the source list for `COCCOc1cnc(O[C@@H]2C[C@H]3C(=O)N[C@]4(C(=O)NS(=O)(=O)C5CC5)C[C@H]4/C=C\CC[C@@H](C)C[C@@H](C)[C@H](NC(=O)OC(C)(C)C(F)(F)F)C(=O)N3C2)c2ccc(OC)cc12` [Compound 1147, 1,1,1-trifluoro-2-methylpropan-2-yl((2R,6S,7R,9R,13aS,14aR,16aS,Z)-14a-((cyclopropylsulfonyl)carbamoyl)-2-((6-methoxy-4-(2-methoxyethoxyl)isoquinolin-1-yl)oxy)-7,9-dimethyl-5,16-dioxo-1,2,3,5,6,7,8,9,10,11,13a,14,14a,15,16,16a-hexadecahydrocyclopropa[e]pyrrolo[1,2-a][1,4]diazacyclopentadecin-6-yl)carbamate]?
EC50 [1]: < 5.46 nM; EC50 [2]: < 5.46 nM

What does the source list for `COCCOc1cnc(O[C@@H]2C[C@H]3C(=O)N[C@]4(C(=O)NS(=O)(=O)C5(C)CC5)C[C@H]4/C=C\CC[C@H](C)C[C@@H](C)[C@H](NC(=O)OC(C)(C)C(C)(F)F)C(=O)N3C2)c2ccc(OC)cc12` [Compound 1148, 3,3-difluoro-2-methylbutan-2-yl((2R,6S,7R,9S,13aS,14aR,16aS,Z)-2-((6-methoxy-4-(2-methoxyethoxyl)isoquinolin-1-yl)oxy)-7,9-dimethyl-14a-(((1-methylcyclopropyl)sulfonyl)carbamoyl)-5,16-dioxo-1,2,3,5,6,7,8,9,10,11,13a,14,14a,15,16,16a-hexadecahydrocyclopropa[e]pyrrolo[1,2-a][1,4]diazacyclopentadecin-6-yl)carbamate]?
EC50 [1]: < 5.46 nM; EC50 [2]: < 5.46 nM

What does the source list for `COCCOc1cnc(O[C@@H]2C[C@H]3C(=O)N[C@]4(C(=O)NS(=O)(=O)C5(C)CC5)C[C@H]4/C=C\CC[C@@H](C)C[C@@H](C)[C@H](NC(=O)OC(C)(C)C(C)(F)F)C(=O)N3C2)c2ccc(OC)cc12` [Compound 1149, 3,3-difluoro-2-methylbutan-2-yl((2R,6S,7R,9R,13aS,14aR,16aS,Z)-2-((6-methoxy-4-(2-methoxyethoxyl)isoquinolin-1-yl)oxy)-7,9-dimethyl-14a-(((1-methylcyclopropyl)sulfonyl)carbamoyl)-5,16-dioxo-1,2,3,5,6,7,8,9,10,11,13a,14,14a,15,16,16a-hexadecahydrocyclopropa[e]pyrrolo[1,2-a][1,4]diazacyclopentadecin-6-yl)carbamate]?
EC50 [1]: < 5.46 nM; EC50 [2]: < 5.46 nM

Which results are given for `COCCOc1cnc(O[C@@H]2C[C@H]3C(=O)N[C@]4(C(=O)NS(=O)(=O)C5CC5)C[C@H]4/C=C\CC[C@H](C)C[C@@H](C)[C@H](NC(=O)OC(C)(C)C(C)(F)F)C(=O)N3C2)c2ccc(OC)cc12` [Compound 1150, 3,3-difluoro-2-methylbutan-2-yl((2R,6S,7R,9S,13aS,14aR,16aS,Z)-14a-((cyclopropylsulfonyl)carbamoyl)-2-((6-methoxy-4-(2-methoxyethoxyl)isoquinolin-1-yl)oxy)-7,9-dimethyl-5,16-dioxo-1,2,3,5,6,7,8,9,10,11,13a,14,14a,15,16,16a-hexadecahydrocyclopropa[e]pyrrolo[1,2-a][1,4]diazacyclopentadecin-6-yl)carbamate]?
EC50 [1]: < 5.46 nM; EC50 [2]: < 5.46 nM

With `COCCOc1cnc(O[C@@H]2C[C@H]3C(=O)N[C@]4(C(=O)NS(=O)(=O)C5CC5)C[C@H]4/C=C\CC[C@@H](C)C[C@@H](C)[C@H](NC(=O)OC(C)(C)C(C)(F)F)C(=O)N3C2)c2ccc(OC)cc12` [Compound 1151, 3,3-difluoro-2-methylbutan-2-yl((2R,6S,7R,9R,13aS,14aR,16aS,Z)-14a-((cyclopropylsulfonyl)carbamoyl)-2-((6-methoxy-4-(2-methoxyethoxyl)isoquinolin-1-yl)oxy)-7,9-dimethyl-5,16-dioxo-1,2,3,5,6,7,8,9,10,11,13a,14,14a,15,16,16a-hexadecahydrocyclopropa[e]pyrrolo[1,2-a][1,4]diazacyclopentadecin-6-yl)carbamate] as the compound, how does the EC50 [1] read?
The EC50 was less than 5.46 nM.

And the EC50 [2]?
Its EC50 is less than 5.46 nM.
